# Laboratory results from PubChem BioAssay AID1259411 (Chemical Carcinogenesis Research Information System (CCRIS), 2018).
# The source made the active and inactive calls. The rule behind the calls is not given here.
# System: rodent carcinogenicity bioassays, tumor incidence
# Test: CCRIS carcinogenicity studies
# In short: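 Archive of carcinogenicity, mutagenicity, tumor promotion and tumor inhibition results drawn from journals, NCI reports and other sources, expert-reviewed; covers 1985-2011 and is no longer updated.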
structure (smiles),measurement,setting,value
Cc1c([N+](=O)[O-])c2ccccc2c2ccc3ccccc3c12,carcinogen call,"Species: MOUSE, Strain/Sex: SWISS/FEMALE, Route: INTRAPERITONEAL, Dose: 0, 100 NMOL (TOTAL DOSE) ADMINISTERED 1/7, 2/7 AND 4/7 ON DAY 1, 8 AND 15 RESPECTIVELY (STUDY DURATION: 32 WK)",inactive; negative
same,carcinogen call,"Species: MOUSE, Strain/Sex: SWISS/MALE, Route: INTRAPERITONEAL, Dose: 0, 100 NMOL (TOTAL DOSE) ADMINISTERED 1/7, 2/7 AND 4/7 ON DAY 1, 8 AND 15 RESPECTIVELY (STUDY DURATION: 32 WK), Tumor Site: Type of Lesion: LIVER: TUMOR",active; positive
O.O.O.O.O.O.O.O=S(=O)(O)O.[Co+2],carcinogen call,"Species: MOUSE, Strain/Sex: B6C3F1/FEMALE, Route: INHALATION, Dose: 0, 0.3, 1, 3 MG/M3 6HR/D 5 D/WK FOR 105 WK (STUDY DURATION: 105 WK), Dose: 0, 0.3, 1, 3 MG/M3 6HR/D 5 D/WK FOR 105 WK (STUDY DURATION: 105 WK), Tumor Site: Type of Lesion: LUNG: ALVEOLAR/BRONCHIOLAR ADENOMA, ALVEOLAR/BRONCHIOLAR CARCINOMA",active; positive
same,carcinogen call,"Species: MOUSE, Strain/Sex: B6C3F1/MALE, Route: INHALATION, Dose: 0, 0.3, 1, 3 MG/M3 6HR/D 5 D/WK FOR 105 WK (STUDY DURATION: 105 WK), Dose: 0, 0.3, 1, 3 MG/M3 6HR/D 5 D/WK FOR 105 WK (STUDY DURATION: 105 WK), Tumor Site: Type of Lesion: LUNG: ALVEOLAR/BRONCHIOLAR ADENOMA, ALVEOLAR/BRONCHIOLAR CARCINOMA",active; positive
same,carcinogen call,"Species: RAT, Strain/Sex: F344/FEMALE, Route: INHALATION, Dose: 0, 0.3, 1, 3 MG/M3 6HR/D 5 D/WK FOR 105 WK (STUDY DURATION: 105 WK), Dose: 0, 0.3, 1, 3 MG/M3 6HR/D 5 D/WK FOR 105 WK (STUDY DURATION: 105 WK), Tumor Site: Type of Lesion: LUNG: ALVEOLAR/BRONCHIOLAR ADENOMA, ALVEOLAR/BRONCHIOLAR CARCINOMA, ADRENAL MEDULLA: BENIGN, COMPLEX, OR MALIGNANT PHEOC",active; positive
same,carcinogen call,"Species: RAT, Strain/Sex: F344/N/MALE, Route: INHALATION, Dose: 0, 0.3, 1, 3 MG/M3 6HR/D 5 D/WK FOR 105 WK (STUDY DURATION: 105 WK), Dose: 0, 0.3, 1, 3 MG/M3 6HR/D 5 D/WK FOR 105 WK (STUDY DURATION: 105 WK), Tumor Site: Type of Lesion: LUNG: ALVEOLAR/BRONCHIOLAR ADENOMA",active; positive
O=CC1CO1 (stereo unspecified),carcinogen call,"Species: MOUSE, Route: DERMAL, Tumor Site: Type of Lesion: INTEGUMENTARY SYSTEM (SKIN)",active; positive
same,carcinogen call,"Species: MOUSE, Route: SUBCUTANEOUS, Tumor Site: Type of Lesion: INJECTION SITE",active; positive
N[C@@H](Cc1ccc(N(CCCl)CCCl)cc1)C(=O)O,carcinogen call,"Species: HUMAN, Route: ORAL, Tumor Site: Type of Lesion: HEMATOPOIETIC SYSTEM (LEUKEMIA), LYMPHATIC SYSTEM: LYMPHOMA",active; positive
same,carcinogen call,"Species: MOUSE, Strain/Sex: STRAIN-A/MALE,FEMALE, Route: INTRAPERITONEAL, Dose: 0.27, 1.07, 4.27, 17.1 MG/KG IN 12 DOSES OVER 4 WK, Dose: 0.27, 1.07, 4.27, 17.1 MG/KG IN 12 DOSES OVER 4 WK, Tumor Site: Type of Lesion: LUNG: ADENOMA",active; positive
same,carcinogen call,"Species: MOUSE, Strain/Sex: SWISS/FEMALE, Route: INTRAPERITONEAL, Dose: 0.75, 1.5 MG/KG 3/WK FOR 6 MO, Tumor Site: Type of Lesion: LUNG: ADENOMA",active; positive
same,carcinogen call,"Species: MOUSE, Strain/Sex: SWISS/MALE, Route: INTRAPERITONEAL, Dose: 0.75, 1.5 MG/KG 3/WK FOR 6 MO, Tumor Site: Type of Lesion: LUNG: ADENOMA, LYMPHATIC SYSTEM: LYMPHOSARCOMA",active; positive
same,carcinogen call,"Species: RAT, Strain/Sex: STRAIN-CD/MALE,FEMALE, Route: INTRAPERITONEAL, Dose: 0.9, 1.8 MG/KG 3/WK FOR 6 MO, Tumor Site: Type of Lesion: PERITONEAL CAVITY: SARCOMA",active; positive
Oc1ccccc1,carcinogen call,"Species: MOUSE, Strain/Sex: B6C3F1/FEMALE, Route: ORAL, Dose: 0, 2500, 5000 PPM IN DIET, Dose: 0, 2500, 5000 PPM IN DIET",inactive; negative
same,carcinogen call,"Species: MOUSE, Strain/Sex: B6C3F1/MALE, Route: ORAL, Dose: 0, 2500, 5000 PPM IN DIET, Dose: 0, 2500, 5000 PPM IN DIET",inactive; negative
same,carcinogen call,"Species: RAT, Strain/Sex: F344/FEMALE, Route: ORAL, Dose: 0, 2500, 5000 PPM IN DIET, Dose: 0, 2500, 5000 PPM IN DIET",inactive; negative
same,carcinogen call,"Species: RAT, Strain/Sex: F344/MALE, Route: ORAL, Dose: 0, 2500, 5000 PPM IN DIET, Dose: 0, 2500, 5000 PPM IN DIET",inactive; negative
C=CC(=O)O,carcinogen call,"Species: MOUSE, Strain/Sex: C3H/MALE, Route: DERMAL, Dose: 0, 0.20 MG IN 25 µL ACETONE 3/WK FOR LIFESPAN (STUDY DURATION: LIFESPAN)",inactive; negative
same,carcinogen call,"Species: RAT, Strain/Sex: WISTAR/FEMALE, Route: ORAL, Dose: 0, 120, 400, 1200 PPM IN DRINKING WATER FOR 28 MO (STUDY DURATION: 28 MO), Dose: 0, 120, 400, 1200 PPM IN DRINKING WATER FOR 28 MO (STUDY DURATION: 28 MO)",inactive; negative
same,carcinogen call,"Species: RAT, Strain/Sex: WISTAR/MALE, Route: ORAL, Dose: 0, 120, 400, 1200 PPM IN DRINKING WATER FOR 26 MO (STUDY DURATION: 26 MO), Dose: 0, 120, 400, 1200 PPM IN DRINKING WATER FOR 26 MO (STUDY DURATION: 26 MO)",inactive; negative
Clc1ccc(-c2cc(Cl)c(Cl)c(Cl)c2)cc1Cl,carcinogen call,"Species: RAT, Strain/Sex: SPRAGUE-DAWLEY/FEMALE, Route: GAVAGE, Dose: 0, 30, 100, 175, 300, 550, 1000 NG/KG BW 5 D/WK FOR 2 YRS, Dose: 0, 30, 100, 175, 300, 550, 1000 NG/KG BW 5 D/WK FOR 2 YRS, Tumor Site: Type of Lesion: LIVER: CHOLANGIOCARCINOMA, HEPATOCELLULAR ADENOMA OR CARCINOMA",active; positive
same,carcinogen call,"Species: RAT, Strain/Sex: SPRAGUE-DAWLEY/FEMALE, Route: GAVAGE, Dose: 0, 30, 100, 175, 300, 550, 1000 NG/KG BW 5 D/WK FOR 2 YRS, Dose: 0, 30, 100, 175, 300, 550, 1000 NG/KG BW 5 D/WK FOR 2 YRS, Tumor Site: Type of Lesion: LUNG: CYSTIC KERATINIZING EPITHELIOMA",active; positive
same,carcinogen call,"Species: RAT, Strain/Sex: SPRAGUE-DAWLEY/FEMALE, Route: GAVAGE, Dose: 0, 30, 100, 175, 300, 550, 1000 NG/KG BW 5 D/WK FOR 2 YRS, Dose: 0, 30, 100, 175, 300, 550, 1000 NG/KG BW 5 D/WK FOR 2 YRS, Tumor Site: Type of Lesion: ORAL CAVITY: SQUAMOUS CELL CARCINOMA",active; positive
same,carcinogen call,"Species: RAT, Strain/Sex: SPRAGUE-DAWLEY/FEMALE, Route: GAVAGE, Dose: 1000 NG/KG BW 5 D/WK FOR 30 WKS (STUDY DURATION: 2 YRS)",inactive; negative
same,carcinogen call,"Species: RAT, Strain/Sex: SPRAGUE-DAWLEY/FEMALE, Route: ORAL, Dose: 0, 30, 100, 175, 300, 550, 1000 NG/KG/D (STUDY DURATION: 2 YRS), Dose: 0, 30, 100, 175, 300, 550, 1000 NG/KG/D (STUDY DURATION: 2 YRS), Tumor Site: Type of Lesion: ORAL MUCOSA: SQUAMOUS CELL CARCINOMA",active; positive; highest dose only
O=[N+]([O-])c1ccc2c3c(cccc13)CC2,carcinogen call,"Species: MOUSE, Strain/Sex: B6C3F1/FEMALE, Route: ORAL, Dose: 0, 0.05, 0.12% TWA, IN DIET FOR 78 WK (STUDY DURATION: 96 WK), Dose: 0, 0.05, 0.12% TWA, IN DIET FOR 78 WK (STUDY DURATION: 96 WK), Tumor Site: Type of Lesion: LIVER: HEPATOCELLULAR CARCINOMA, OVARIES: GRANULOSA CELL TUMOR, LUTEOMA OR TUBULAR CELL ADENOMA",active; positive
same,carcinogen call,"Species: MOUSE, Strain/Sex: B6C3F1/MALE, Route: ORAL, Dose: 0, 0.06, 0.12% TWA, IN DIET FOR 78 WK (STUDY DURATION: 96 WK), Dose: 0, 0.06, 0.12% TWA, IN DIET FOR 78 WK (STUDY DURATION: 96 WK)",inactive; negative
same,carcinogen call,"Species: RAT, Strain/Sex: F344/FEMALE, Route: ORAL, Dose: 0, 0.12, 0.24% IN DIET FOR 78 WK (STUDY DURATION: 87-100 WK), Dose: 0, 0.12, 0.24% IN DIET FOR 78 WK (STUDY DURATION: 87-100 WK), Tumor Site: Type of Lesion: LUNG: ALVEOLAR/BRONCHIOLAR ADENOMA OR ALVEOLAR/BRONCHIOLAR CARCINOMA, MAMMARY GLAND: ADENOCARCINOMA OR PAPILLARY CYSTADE",active; positive
same,carcinogen call,"Species: RAT, Strain/Sex: F344/MALE, Route: ORAL, Dose: 0, 0.12, 0.24% IN DIET FOR 70-78 WK (STUDY DURATION: 70-100 WK), Dose: 0, 0.12, 0.24% IN DIET FOR 70-78 WK (STUDY DURATION: 70-100 WK), Tumor Site: Type of Lesion: LUNG: ALVEOLAR/BRONCHIOLAR ADENOMA OR ALVEOLAR/BRONCHIOLAR CARCINOMA, EAR (EAR CANAL OR SKIN OF EAR): SQUAMOUS CELL CARC",active; positive
O=CCCl,carcinogen call,"Species: MOUSE, Strain/Sex: B6C3F1/MALE, Route: ORAL, Dose: 0, 0.1 G/L DISTILLED DRINKING WATER FOR STUDY DURATION (17 MG/KG/D) (STUDY DURATION: 104 WK), Tumor Site: Type of Lesion: LIVER: HEPATOCELLULAR CARCINOMA, HEPATOCELLULAR ADENOMA",active; positive
Brc1cc(Br)c2cccnc2c1,carcinogen call,"Species: RAT, Strain/Sex: F344/FEMALE, Route: ORAL, Dose: 0.1% IN DIET FOR 2 YR",inactive; negative
